Consider 76 molecules from PubChem BioAssay AID1189 (EPA DSSTox, 2008).

Structures are written as SMILES. Activity calls are given as the source filed them.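 The calls were made as follows: active = a tumor-causing dose value with its tumor site reported for any sex and species group of a rodent or other animal cancer study; inconclusive = only studies judged inadequate by the national testing program; inactive = tested in at least one study, none positive.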

This series can be described thus: DSSTox (CPDBAS) Carcinogenic Potency Database Summary SingleCellCall Results. The settings on record: animal chronic carcinogenicity bioassays, CPDB summary call. The text has this: The Carcinogenic Potency Database (CPDB) is a unique and widely used international resource of the results of over 6500 chronic, long-term animal cancer tests on over 1500 chemical substances. The CPDB provides easy access to the bioassay literature, with qualitative and quantitative analyses of both positive and negative experiments that have been published over the past 50 years in the general literature and by the National Cancer Institute/National Toxicology Program. The CPDB standardizes the diverse literature of cancer bioassays that vary widely in protocol, histopathological examination and nomenclature, and in the published author's choices of what information to provide in their papers. Results are reported in the CPDB for tests in rats, mice, hamsters, dogs, and nonhuman primates, and are based on the most positive result among all experiments for each sex-species. The DSSTox CPDBAS (all species) file incorporates data from the CPDB Summary Tables for the full list of over 1500 chemical substances tested in at least one species. A summary SingleCellCall, based on experimental bioassay results of one or more species, is provided for the entire DSSTox CPDBAS file (see Source URL).
An assignment of categorical carcinogenic activity based on minimal evidence for or against activity. […] Associated TD50 values and tumor site details for the relevant species/sex experiment supporting this overall CPDBAS SingleSiteCall are provided in the full CPDBAS DSSTox file (see Comment) and the corresponding CPDBAS Species Bioassay in PubChem.
`CCCCCCCCCCCCC(=O)COC1=C(O)C(=O)O[C@@H]1[C@@H](O)CO`: the result was inactive.

As for `ClC(Cl)=C(Cl)c1c(Cl)c(Cl)c(Cl)c(Cl)c1Cl`, the outcome was inactive.

`c1ccc(C2CO2)cc1` (stereo unspecified): the result was active.

Take `O=Nc1ccc(Nc2ccccc2)cc1`: the outcome was “active; inactive”.

Take `Nc1ccc(Cl)c(N)c1`: the outcome was active.

As for `C/C=C1/C[C@@H](C)[C@](O)(CO)C(=O)OCC2=CCN3CC[C@@H](OC1=O)[C@@H]23`, the result was active.

For `CCN(Cc1cccc(S(=O)(=O)O)c1)c1ccc(C(=C2C=CC(=[N+](CC)Cc3cccc(S(=O)(=O)O)c3)C=C2)c2ccccc2S(=O)(=O)[O-])cc1`, the outcome was “inactive; active”.

Turning to `CC1CN1P(=O)(N1CC1C)N1CC1C` (stereo unspecified), the result was active.

Regarding `COc1cc(/C=C/C(=O)O[C@H]2CC[C@]34C[C@]35CC[C@]3(C)[C@@H]([C@H](C)CCC=C(C)C)CC[C@@]3(C)[C@@H]5CC[C@H]4C2(C)C)ccc1O`, the outcome was inactive.

As to `CNC(=O)CSP(=S)(OC)OC`, the outcome was inactive.

Turning to `[O]=[Cr][O][Cr]=[O]`, the outcome was inactive.

As to `O=[N+]([O-])c1ccc(-c2cnc3ccccn23)o1`, the outcome was active.

Turning to `Cc1nnc2n1-c1sc(CCc3ccc(CC(C)C)cc3)cc1C(c1ccccc1Cl)=NC2C` (stereo unspecified), the outcome was inactive.

On to `ClCOCC(COCCl)OCCl`, for which the result was active.

For the molecule `CC1=C[C@H]2[C@@]3(O)[C@H](C)[C@@H](O)[C@]4(O)[C@H]([C@@H]3C=C(CO)C[C@]2(O)C1=O)C4(C)C`, the outcome was active.

Turning to `C=Cc1cccc[n+]1[O-]`, the outcome was inactive.

Take `CN1C(C(=O)Nc2ccccn2)=C(O)c2ccccc2S1(=O)=O`: the outcome was inactive.

As for `O=S(=O)(O)c1cc(S(=O)(=O)O)c2c(N=Nc3ccccc3)c(O)ccc2c1`, the result was inactive.

With `CC(=O)[O][Hg][c]1ccccc1`, the outcome was inactive.

As to `OC[C@H]1O[C@@](CO)(O[C@H]2O[C@H](CO)[C@@H](O)[C@H](O)[C@H]2O)[C@@H](O)[C@@H]1O`, the outcome was inactive.

Consider `CNc1ncnc2c1ncn2[C@@H]1O[C@H](CO)[C@@H](O)[C@H]1O`, for which the outcome was “inactive; active”.

Take `O=[As]O`: the outcome was inactive.

`Oc1ccc(Cl)cc1Cl`: the outcome was inactive.

As for `O[C@@H]([C@H](O)[C@@H](O)CBr)[C@@H](O)CBr`, the outcome was active.

Regarding `[O-][Br+2]([O-])O`, the outcome was active.

`Cc1cc(O)c2c(c1)C(=O)c1cc(O)cc(O)c1C2=O`: the outcome was “inactive; active”.

For the molecule `C=C/C1=C/[C@H](C)[C@](C)(OC(C)=O)C(=O)OCC2=CC[N+]3(C)CC[C@@H](OC1=O)C23[O-]` (stereo partly specified), the outcome was “active; inactive”.

Take `COc1cc(N)ccc1N=Nc1ccccc1`: the outcome was “inactive; active”.

Turning to `Nc1ncn[nH]1`, the outcome was “active; inactive”.

Regarding `COc1cc2c(c3c1c(=O)c1ccccc1n3C)C=CC(C)(C)O2`, the outcome was “active; inactive”.

As for `c1ccc2[nH]c(-c3cscn3)nc2c1`, the result was inactive.

As for `CCNN`, the result was active.

Turning to `CCOC(=O)CC(SP(=S)(OC)OC)C(=O)OCC` (stereo unspecified), the outcome was inactive.

As to `COC(=O)[C@H]1[C@H]2C[C@@H]3c4[nH]c5cc(OC)ccc5c4CCN3C[C@H]2C[C@@H](OC(=O)c2cc(OC)c(OC)c(OC)c2)[C@@H]1OC`, the result was active.

Turning to `CC(=O)OC[C@]12C[C@H](OC(=O)CC(C)C)C(C)=C[C@H]1O[C@@H]1[C@H](O)[C@@H](OC(C)=O)[C@@]2(C)C12CO2` (stereo partly specified), the outcome is “active; inactive”.

As to `O=c1[nH]nc(-c2ccc([N+](=O)[O-])o2)o1`, the outcome was “active; inactive”.

On to `CCOc1ccc(NC(C)=O)cc1N`, for which the result was active.

With `CN(N=O)C(=O)Nc1nc2ccccc2s1`, the outcome was active.

Turning to `CCN(CC)C(=S)[S-].CCN(CC)C(=S)[S-].[Zn+2]`, the result was inactive.

For the molecule `CC[N+]([O-])=NC`, the outcome was active.

Turning to `O=P1(NCCCl)OCCCN1CCCl` (stereo unspecified), the outcome was “active; inactive”.

Turning to `Cc1ncc([N+](=O)[O-])n1CCO`, the result was active.

Consider `Cc1ncc([N+](=O)[O-])n1C`, for which the outcome was active.

`O=C(O)C(Cl)(Cl)Cl`: the outcome was active.

`NC(=S)Nc1ccccc1`: the outcome was inactive.

Turning to `O=NN1CCCCCCC1`, the outcome was active.

`ClC1(Cl)C2(Cl)C3C4(Cl)C1(Cl)C1(Cl)C4(Cl)C(Cl)(Cl)C3(Cl)C21Cl` (stereo unspecified): the outcome was “active; inactive”.

As for `CCOC(=O)[C@H](CCc1ccccc1)N[C@@H](C)C(=O)N1Cc2ccccc2C[C@H]1C(=O)O`, the outcome was “inactive; active”.

On to `CCc1cccc2c3c([nH]c12)C(CC)(CC(=O)O)OCC3` (stereo unspecified), for which the result was inactive.

In the case of `O=[N+]([O-])c1ccc(Cl)cc1`, the outcome was active.

Regarding `ClCOCCCCOCCl`, the result was inactive.

As for `O=[O+][O-]`, the result was active.

For the molecule `ClC1(Cl)C2(Cl)C3(Cl)C4(Cl)C(Cl)(Cl)C5(Cl)C3(Cl)C1(Cl)C5(Cl)C24Cl` (stereo unspecified), the outcome was “active; inactive”.

With `CC(Oc1ccc(Cl)cc1Cl)C(=O)O` (stereo unspecified), the outcome was inactive.

With `CC(COc1ccc(C(C)(C)C)cc1)OS(=O)OCCCl` (stereo unspecified), the outcome was active.

Consider `O=C(O)Cc1c[nH]c2ccccc12`, for which the outcome was inactive.

For the molecule `C/C=C/C(=O)Oc1c(C(C)CCCCCC)cc([N+](=O)[O-])cc1[N+](=O)[O-]` (stereo unspecified), the result was inactive.

Consider `COc1ccccc1N`, for which the outcome was active.

`ClC(Cl)=C(c1ccc(Cl)cc1)c1ccc(Cl)cc1`: the outcome was active.

As for `C=CCOc1ccc(CC(=O)O)cc1Cl`, the outcome was inactive.

With `OCCN(CCO)C(=S)S`, the result was active.

`NNc1nc(-c2ccc([N+](=O)[O-])cc2)cs1`: the result was active.

With `CN(CCCC(O)c1cccnc1)N=O` (stereo unspecified), the outcome was active.

With `Cc1ccc2ncccc2c1`, the result was inactive.

For `[CH3][Hg][Cl]`, the outcome was active.

With `COc1ccc(O)cc1`, the outcome was active.

Consider `CC(Cl)(Cl)Cl`, for which the result was inactive.

For `O=C1CCCO1`, the result was inactive.

As for `O=C(O)C1[O][Sb]2[O]C(=O)C([O]2)C(C(=O)O)[O][Sb]2[O]C(=O)C1[O]2` (stereo unspecified), the result was inactive.

As for `CC(=O)NNC(=O)c1ccncc1`, the outcome was active.

On to `CC1=CC(C)(C)N(N=O)c2ccccc21`, for which the outcome was active.

With `CN(C)C(=O)Nc1ccc(Cl)c(Cl)c1`, the result was inactive.

As for `CCN(N=O)C(=O)NCCO`, the outcome was active.

Consider `CCOC(N)=O`, for which the outcome was “active; inactive”.

In the case of `Cc1cc(Cc2cc(C)cc(C(C)(C)C)c2O)c(O)c(C(C)(C)C)c1`, the outcome is “inactive; active”.

For the molecule `CCCCN(CCCC)N=O`, the outcome was active.
